Values quoted from earlier work as cited in patent publication US20140255430A1, “METHODS AND REAGENTS FOR DETECTION AND TREATMENT OF ESOPHAGEAL METAPLASIA” (NATIONAL UNIVERSITY OF SINGAPORE, priority 2010, published 2014).

Target: T1, PPARgamma (Homo sapiens, UniProt P37231)
T1 sequence (P37231 1-505): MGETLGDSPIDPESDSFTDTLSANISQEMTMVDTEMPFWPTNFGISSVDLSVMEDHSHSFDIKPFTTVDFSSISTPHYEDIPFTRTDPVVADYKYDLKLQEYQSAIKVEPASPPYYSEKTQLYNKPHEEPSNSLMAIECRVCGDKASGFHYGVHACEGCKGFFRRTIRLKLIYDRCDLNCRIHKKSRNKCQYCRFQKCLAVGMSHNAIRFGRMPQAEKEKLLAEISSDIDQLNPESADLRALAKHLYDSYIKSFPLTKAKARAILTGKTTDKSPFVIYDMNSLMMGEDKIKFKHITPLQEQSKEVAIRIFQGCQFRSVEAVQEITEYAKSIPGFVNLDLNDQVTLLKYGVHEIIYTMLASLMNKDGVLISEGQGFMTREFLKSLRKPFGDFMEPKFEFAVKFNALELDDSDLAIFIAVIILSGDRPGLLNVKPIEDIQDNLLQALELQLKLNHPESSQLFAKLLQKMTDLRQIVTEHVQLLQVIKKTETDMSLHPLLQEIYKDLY
Settings: irreversible inhibitor

**Q.** Which “IC50 for suppression of PPARgamma” value does the source give for O=C(Nc1ccccc1)c1cc([N+](=O)[O-])ccc1Cl [GW-9662, 2-Chloro-5-nitro-N-phenyl-benzamide] here?
**A.** nanomolar
